According to patent publication US20230143490A1, “METHODS OF TREATING SOIL” (Taminco BV, priority 2020, published 2023):

Tests used:
Foc TR4 chlamydospores = assay: In vitro efficacy of metam sodium on Foc TR4 chlamydospores (colony growth on PDA plates); format: cell-based, Fusarium oxysporum f. sp. cubense Tropical Race 4
Description: Foc TR4 chlamydospores were extracted from infested soil and incubated with a dilution series of metam sodium for 5 min and 60 min at room temperature. Thereafter, the samples were diluted 10× to get reduction of the treatment and sufficient dilution of chlamydospores to avoid lack of resolution when grown on plate. Aliquots of 100 μl were plated on PDA plates in duplicate and incubated for 3 days at 25° C. Plates were photographed and scored.

Cavendish banana plants = assay: Field trial: banana plant growth and development after metam sodium soil injection at 30 cm and 60 cm; format: in vivo, Musa (Cavendish banana)
Description: (§1) Metam Sodium Application. Metam sodium 510 SL (equivalent to 42% w/w) was applied to soil at the following doses: 0 liters per hectare (L/ha), 750 L/ha, 1500 L/ha, 2250 L/ha, 3000 L/ha.
(§2) Prior to injection, soil was prepared using a rototiller to break the soil structure from 0 cm to 80 cm deep, allowing for the smooth and even injection application by an injection machine. The soil was then leveled and made uniform, and the metam sodium was applied at two depths: 30 cm and 60 cm, using injection methods. The temperature was at a minimum of 10° C. and soil humidity was between 50 and 60% holding capacity, allowing the applied product to transform from metam sodium (liquid) to MITC (gas).
(§3) The application was made using an injection machine wherein the machine lowered shanks and began moving forward such that the shanks lowered to a depth of 60 cm and injectors applied the metam sodium into the soil. When the injection at 60 cm was complete, the process was repeated for the entire field at 30 cm. The treated soil in the field was then sealed using a packer roller (which was part of the injection machinery, located at the back end of the machine), after each application.
Plant Selection and Transplantation. Cavendish banana plants were used for this investigation. In order to avoid plants already contaminated by other soil, all plants were produced in vitro using art-recognized methods. Plants were transplanted into the field 14 days after the final soil reading was taken (21 days after treatment).
Data Gathering. Data were gathered at monthly intervals beginning three months after banana plants were transplanted. A total of three data collection sessions were conducted. Data including the number of leaves, plant height, and girth size were collected.

[1] = tested on: F. oxysporum f. sp. cubense; assay: Panama disease analysis of field soil samples after metam sodium injection (plating on Komada medium); format: in vivo, Fusarium oxysporum f. sp. cubense Tropical Race 4; details: any of the treated groups; any day post application
Description: as §1, §2, §3
Soil Analysis. Soil samples were obtained at 20, 40, and 60 cm before application and every 24 hours beginning 48 hours after application, for seven days.
Plant Pathology Analysis. […]

[2] = 750 L/ha, six months after treatment
[3] = 1500 L/ha, six months after treatment
[4] = 2250 L/ha, six months after treatment
[5] = 3000 L/ha, six months after treatment

SMILES: CNC(=S)S [metam sodium, sodium N-methyldithiocarbamate]
- reducing the number of surviving chlamydospores, measured as growing colonies (Foc TR4 chlamydospores; 100× dilution, prolonged incubation (60 min vs 5 min)): more effective
- efficacy on Foc TR4 colony growth (Foc TR4 chlamydospores; dilution of 10×, incubation time 5 minutes): effective
- efficacy on Foc TR4 colony growth (Foc TR4 chlamydospores; dilution of 100×, 5 and 60 minutes): less effective
- reduction in viability of Foc TR4 chlamydospores (Foc TR4 chlamydospores; first test, dilutions from 1000 up to 10×10^6-fold, 60 min): No significant reduction in viability
- efficacy against Foc TR4 chlamydospores (Foc TR4 chlamydospores; in vitro conditions, dependent on high concentrations): effective against Foc TR4 chlamydospores
- efficacy on chlamydospore survival (Foc TR4 chlamydospores; second test, 10× and 100× dilutions): (partially) effective
- number of chlamydospores that survived (Foc TR4 chlamydospores; second test, dilutions of 1000× and more): did not affect the number of chlamydospores that survived
- average girth size of banana plant, increase (Cavendish banana plants; 750 L/ha): ~1 cm
- average height of banana plant, increase (Cavendish banana plants; 750 L/ha): ~5 cm
- percent of plants at either shooting or bagging stage (Cavendish banana plants; [2]): 11%
- percent of plants at shooting stage (Cavendish banana plants; [2]): 9%
- plants reaching bagging stage (Cavendish banana plants; [2]): did not have a meaningful effect
- average girth size of banana plant, increase (Cavendish banana plants; 1500-3000 L/ha): 4-6 cm
- average height of banana plant, increase (Cavendish banana plants; 1500-3000 L/ha): 20-23 cm
- percent of plants at either shooting or bagging stage (Cavendish banana plants; [3]): 28%
- percent of plants at shooting stage (Cavendish banana plants; [3]): 10%
- percent of plants at bagging stage (Cavendish banana plants; 1500 to 3000 L/ha, six months after treatment): 11-19%
- percent of plants at either shooting or bagging stage (Cavendish banana plants; [4]): 27%
- percent of plants at shooting stage (Cavendish banana plants; [4]): 17%
- percent of plants at either shooting or bagging stage (Cavendish banana plants; [5]): 35%
- percent of plants at shooting stage (Cavendish banana plants; [5]): 22%
- average number of leaves, increase (Cavendish banana plants; regardless of dose applied (750-3000 L/ha), vs 0 L/ha): roughly 1.5 fold
- soil contamination: Foc TR4 detection [1]: No Foc TR4 was detected
